In US11192852B2, “Pyrazolyl and pyrimidinyl tricyclic enones as antioxidant inflammation modulators” (REATA PHARMACEUTICALS, INC., priority 2010, dated 2021):

Experiments:
[1] = system: Nrf2 transcription factor (human NQO1-ARE reporter) in HuH7 cells; experiment: NQO1-ARE Luciferase Reporter Assay; format: cell-based; settings: Huh-7, 62.5 nM, 18 h, fold over DMSO vehicle, Firefly normalized to Renilla
Excerpt: NQO1-ARE Luciferase Reporter Assay.
This assay allows for quantitative assessment of the endogenous activity of the Nrf2 transcription factor in cultured mammalian cells. Expression of Firefly luciferase from NQO1-ARE luciferase reporter plasmid is controlled by binding of Nrf2 to a specific enhancer sequence corresponding to the antioxidant response element (ARE) that was identified in the promoter region of the human NADPH:quinone oxidoreductase 1 (NQO1) gene (Xie et al., 1995). The plasmid was constructed by inserting a sequence:
5′-[…]-3′ (SEQ ID NO:1) encompassing the human NQO1-ARE into the pLuc-MCS vector using HindIII/XhoI cloning sites (GenScript Corp., Piscataway, N.J.). The assay is performed in HuH7 cells maintained in DMEM (Invitrogen) supplemented with 10% FBS and 100 U/ml (each) of penicillin and streptomycin. For the assay, cells are plated in 96-well plates at 17,000 cells per well. Twenty four hours later, the cells are co-transfected with 50 ng each of NQO1-ARE reporter plasmid and pRL-TK plasmid using Lipofectamine 2000 transfection reagent (Invitrogen). pRL-TK plasmid constitutively expresses Renilla luciferase and is used as an internal control for normalization of transfection levels. Thirty hours after transfection, the cells are treated with compounds (at concentrations ranging from 0 to 1 μM) for eighteen hours. Firefly and Renilla luciferase activity is assayed by Dual-Glo Luciferase Assay (Promega Corp., Madison, Wis.), the luminescence signal is measured on an L-Max II luminometer (Molecular Devices). Firefly luciferase activity is normalized to the Renilla activity, and fold induction over a vehicle control (DMSO) of normalized Firefly activity is calculated. The fold induction at 62.5 nM concentration is used for comparing relative potencies of compounds to induce Nrf2 transcriptional activity. See Xie T, Belinsky M, Xu Y, Jaiswal A K. ARE- and TRE-mediated regulation of gene expression. Response to xenobiotics and antioxidants. J Biol Chem. (1995) 270(12):6894-6900, which is incorporated herein by reference.

[2] = system: IFNγ-induced NO production in RAW264.7 mouse macrophages; experiment: Suppression of IFNγ-induced nitric oxide production (Griess reagent); format: cell-based; settings: 2 h pre-treatment (0-200 nM), then IFNγ 24 h, normalized to cell viability
Excerpt: Nitric Oxide Production and Cell Viability.

[3] = Mus musculus, RAW264.7, RAW264.7 cells

| SMILES | fold induction at 0.0625 µM [1] | IC50 [2, 3] | IC50 ([2]; RAW264.7 cells) |
| --- | --- | --- | --- |
| COc1nc(-c2cccnc2)nc2c1CC[C@H]1[C@H](C)C(=O)C(C#N)=C[C@]21C [TX63724] | 4.9 | 3.1 nM |  |
| CC(C)c1c2c(nn1C)[C@@]1(C)C=C(C#N)C(=O)C(C)(C)[C@@H]1CC2 [TX63547] | 3.1 | 87 nM |  |
| Cn1cc(-c2c3c(nn2C)[C@@]2(C)C=C(C#N)C(=O)C(C)(C)[C@@H]2CC3)cn1 [TX63588] | 5.2 | 33 nM |  |
| Cn1nc2c(c1-c1ccncc1)CC[C@H]1C(C)(C)C(=O)C(C#N)=C[C@]21C [TX63505] | 6.8 | 16 nM |  |
| C[C@@H]1C(=O)C(C#N)=C[C@]2(C)c3nn(C)c(-c4ccccc4)c3CC[C@@H]12 (racemic) [TX63541] | 4.4 | 6 nM |  |
| CC(C)(C)c1ncc2c(n1)[C@@]1(C)C=C(C#N)C(=O)C(C)(C)[C@@H]1CC2 [TX63561] | 2.4 | 44 nM |  |
| Cn1nc2c(c1-c1ccccc1)CC[C@H]1[C@H](Cc3ccccc3)C(=O)C(C#N)=C[C@]21C [TX63607] | 1 | > 200 nM |  |
| CC1(C)C(=O)C(C#N)=C[C@]2(C)c3c(c(-c4ccccc4)nn3-c3ccccc3)CC[C@@H]12 [TX63605] | 2.8 | 37 nM |  |
| Cn1nc2c(c1-c1ccccc1)CC[C@H]1C(C)(C)C(=O)C(C(F)(F)F)=C[C@]21C [TX63803] |  | 50 nM |  |
| CC(C)c1ncc2c(n1)[C@@]1(C)C=C(C#N)C(=O)C(C)(C)[C@@H]1CC2 [TX63534] |  | 49 nM |  |
| Cn1cc2c(n1)[C@@]1(C)C=C(C#N)C(=O)C3(CCCC3)[C@@H]1CC2 [TX63487] |  | 85 nM |  |
| C[C@@H]1C(=O)C(C#N)=C[C@]2(C)c3nn(C)c(-c4cncnc4)c3CC[C@@H]12 [TX63748] |  | 23 nM |  |
| C[C@@H]1C(=O)C(C#N)=C[C@]2(C)c3nn(C)c(-c4cnn(C)c4)c3CC[C@@H]12 [TX63690] |  | 11 nM |  |
| C[C@@H]1C(=O)C(C#N)=C[C@]2(C)c3nn(C)c(-c4cn(C)[n+]([O-])c4)c3CC[C@@H]12 [TX63849] |  | > 200 nM |  |
| CCOc1nc(C(C)(C)C)nc2c1CC[C@H]1[C@H](C)C(=O)C(C#N)=C[C@]21C [TX63900] |  | 40 nM |  |
| COc1nc(C2CC2)nc2c1CC[C@H]1[C@H](C)C(=O)C(C#N)=C[C@]21C [TX63761] |  | 8.9 nM |  |

| SMILES | fold induction at 0.0625 µM [1] | IC50 [2, 3] | IC50 ([2]; RAW264.7 cells) |
| --- | --- | --- | --- |
| C[C@H]1C(=O)C(C#N)=C[C@@]2(C)c3nn(C)c(-c4ccccc4)c3CC[C@H]12 [TX63792] |  | 147 nM |  |
| CC1(C)C(=O)C(C#N)=C[C@]2(C)c3[nH]nc(-c4ccccc4)c3CC[C@@H]12 [TX63579] |  | 22 nM |  |
| C[C@@H]1C(=O)C(C#N)=C[C@]2(C)c3nn(C)c(-c4ccncc4)c3CC[C@@H]12 [TX63720] |  | 4.9 nM |  |
| Cn1nc2c(c1C(=O)O)CC[C@H]1C(C)(C)C(=O)C(C#N)=C[C@]21C [TX63631] |  | > 200 nM |  |
| Cc1nnc(-c2c3c(nn2C)[C@@]2(C)C=C(C#N)C(=O)[C@@H](C)[C@@H]2CC3)o1 [TX63857] |  | 6.3 nM |  |
| CC[C@@H]1C(=O)C(C#N)=C[C@]2(C)c3nn(C)cc3CC[C@@H]12 [TX63589] |  | 44 nM |  |
| CC(=O)n1cc2c(n1)[C@@]1(C)C=C(C#N)C(=O)C(C)(C)[C@@H]1CC2 [TX63463] |  | ≥ 205 nM |  |
| Cn1nc2c(c1C(N)=O)CC[C@H]1C(C)(C)C(=O)C(C#N)=C[C@]21C [TX63619] |  | > 200 nM |  |
| CC1(C)C(=O)C(C#N)=C[C@]2(C)c3nn(CCO)cc3CC[C@@H]12 [TX63464] |  | > 200 nM |  |
| C[C@@H]1C(=O)C(C#N)=C[C@]2(C)c3n[nH]c(-c4ccccc4)c3CC[C@@H]12 [TX63836] |  | 6.1 nM |  |
| Cn1nc2c(c1-c1ccc(Cl)cc1)CC[C@H]1C(C)(C)C(=O)C(C#N)=C[C@]21C [TX63486] |  | 48 nM |  |
| Cc1c2c(nn1C)[C@@]1(C)C=C(C#N)C(=O)C(C)(C)[C@@H]1CC2 [TX63637] |  | 45 nM |  |
| COc1nc(OC)c2c(n1)[C@@]1(C)C=C(C#N)C(=O)[C@@H](C)[C@@H]1CC2 [TX63793] |  |  | 2.5 nM |
| CNc1nc(C)nc2c1CC[C@H]1[C@H](C)C(=O)C(C#N)=C[C@]21C [TX63852] |  | 30 nM |  |
| Cc1nc(-c2ccccc2)c2c(n1)[C@@]1(C)C=C(C#N)C(=O)C(C)(C)[C@@H]1CC2 [TX63529] |  | 46 nM |  |
